Measurements: ChEMBL document CHEMBL1133615 (J Med Chem, 2000)

Experiments:
Endothelin-1 receptor = target: T1, Endothelin-1 receptor (Homo sapiens, UniProt P25101)
T1 sequence (P25101 whole entry): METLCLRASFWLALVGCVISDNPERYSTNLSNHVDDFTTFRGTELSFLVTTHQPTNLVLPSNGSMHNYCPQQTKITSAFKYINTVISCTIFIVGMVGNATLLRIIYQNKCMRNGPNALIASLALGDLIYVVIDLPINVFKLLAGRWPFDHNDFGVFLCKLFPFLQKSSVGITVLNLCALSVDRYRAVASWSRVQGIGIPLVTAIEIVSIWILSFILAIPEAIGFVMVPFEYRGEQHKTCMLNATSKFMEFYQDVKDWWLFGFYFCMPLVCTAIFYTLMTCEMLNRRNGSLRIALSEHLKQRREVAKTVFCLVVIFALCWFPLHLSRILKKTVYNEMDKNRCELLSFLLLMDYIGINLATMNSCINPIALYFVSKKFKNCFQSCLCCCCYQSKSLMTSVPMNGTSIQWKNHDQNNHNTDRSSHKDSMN
Description: Inhibition of Human Endothelin A receptor expressed in CHO Cells.

Oryctolagus cuniculus = organism: Oryctolagus cuniculus; experiment: Inhibition of Endothelin-1 induced contractions in rabbit carotid artery rings.; format: functional
[1] = target: T2, Endothelin receptor type B (Homo sapiens, UniProt P24530); experiment: Inhibition of Human Endothelin B receptor expressed in CHO Cells.
T2 sequence (P24530 whole entry): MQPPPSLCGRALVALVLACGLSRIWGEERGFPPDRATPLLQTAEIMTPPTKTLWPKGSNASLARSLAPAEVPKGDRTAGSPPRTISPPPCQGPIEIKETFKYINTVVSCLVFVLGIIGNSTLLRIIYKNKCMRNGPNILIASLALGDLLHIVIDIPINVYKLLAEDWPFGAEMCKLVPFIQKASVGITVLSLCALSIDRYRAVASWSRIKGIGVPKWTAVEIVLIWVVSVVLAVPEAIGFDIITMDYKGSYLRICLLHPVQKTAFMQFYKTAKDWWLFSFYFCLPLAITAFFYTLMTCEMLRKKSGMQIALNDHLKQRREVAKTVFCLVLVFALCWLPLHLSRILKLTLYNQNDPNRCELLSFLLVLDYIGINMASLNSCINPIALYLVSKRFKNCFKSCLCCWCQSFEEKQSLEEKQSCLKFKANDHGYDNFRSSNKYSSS

## Cc1nc(-c2ccc(-c3ccccc3S(=O)(=O)Nc3onc(C)c3C)cc2)oc1C
Endothelin-1 receptor
  Ki: 16 nM
Oryctolagus cuniculus
  Kb: 230 nM
[1]
  Ki: 12000 nM

## Cc1noc(NS(=O)(=O)c2ccccc2-c2ccc(Cc3ncco3)cc2)c1C
Endothelin-1 receptor
  Ki: 19 nM
Oryctolagus cuniculus
  Kb: 320 nM
[1]
  Ki: 34000 nM

## Cc1cnc(-c2ccc(-c3ccccc3S(=O)(=O)Nc3onc(C)c3C)cc2)o1
Endothelin-1 receptor
  Ki: 11 nM
Oryctolagus cuniculus
  Kb: 140 nM
[1]
  Ki: 12000 nM

## Cc1noc(NS(=O)(=O)c2ccccc2-c2ccc(CC(C)C)cc2N)c1C
Endothelin-1 receptor
  Ki: 4.7 nM

## Cc1noc(NS(=O)(=O)c2ccccc2-c2ccc(-c3nc4ccccc4o3)cc2)c1C
Endothelin-1 receptor
  Ki: 2000 nM
[1]
  Ki: 94000 nM

## Cc1noc(NS(=O)(=O)c2ccccc2-c2ccc(-c3cnco3)cc2)c1C
Endothelin-1 receptor
  Ki: 3.7 nM
Oryctolagus cuniculus
  Kb: 58 nM
[1]
  Ki: 78000 nM

## Cc1coc(-c2ccc(-c3ccccc3S(=O)(=O)Nc3onc(C)c3C)cc2)n1
Endothelin-1 receptor
  Ki: 2 nM
Oryctolagus cuniculus
  Kb: 18 nM
[1]
  Ki: 100000 nM

## Cc1noc(NS(=O)(=O)c2ccccc2-c2ccc(-c3ncoc3C)cc2)c1C
Endothelin-1 receptor
  Ki: 4.7 nM
Oryctolagus cuniculus
  Kb: 47 nM
[1]
  Ki: 94000 nM

## Cc1nc(-c2ccc(-c3ccccc3S(=O)(=O)Nc3onc(C)c3C)cc2)co1
Endothelin-1 receptor
  Ki: 70 nM
Oryctolagus cuniculus
  Kb: 2500 nM
[1]
  Ki: 110000 nM

## Cc1noc(NS(=O)(=O)c2ccccc2-c2ccc(-c3cocn3)cc2)c1C
Endothelin-1 receptor
  Ki: 0.5 nM
Oryctolagus cuniculus
  Kb: 20 nM
[1]
  Ki: 20000 nM

## Cc1noc(NS(=O)(=O)c2ccccc2-c2ccc(CC(C)C)cc2)c1C
Endothelin-1 receptor
  Ki: 18 nM
Oryctolagus cuniculus
  Kb: 210 nM
[1]
  Ki: 1700 nM
